From PubChem BioAssay (NCI) come the findings set out here.

Test systems include A498 renal; A549 NSCLC; COLO 205 colon; EKVX NSCLC; MOLT-4 leukemia; NCI/ADR-RES ovarian; OVCAR-5 ovarian; PC-3 prostate; SF-539 CNS; SNB-19 CNS.
Assay in all cases: NCI tumour cell line growth inhibition, 48 h

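Test compounds were applied to cells in 96-well plates for 48 hours at 5 doses. GI50: concentration for 50% inhibition of growth. At the TGI there is no net growth.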

Consider `Cc1ccc(-c2nc([P+](c3ccccc3)(c3ccccc3)c3ccccc3)c(Nc3ccccc3)o2)cc1`, for which the GI50 in the assay on A498 renal is 1.12 µM; in the assay with A549 NSCLC, 1.15 µM; with COLO 205 colon, 0.995 µM; in the assay on EKVX NSCLC it was 0.815 µM; in the assay on MOLT-4 leukemia, 0.477 µM; in the assay with NCI/ADR-RES ovarian, 1.11 µM. Further, the GI50 in the assay on OVCAR-5 ovarian was 1.31 µM; in the assay with PC-3 prostate, 0.433 µM; with SF-539 CNS, 1.54 µM; with SNB-19 CNS it was 1.16 µM. Moreover, the TGI in the assay with A498 renal was 2.46 µM; in the assay on A549 NSCLC, 2.87 µM; in the assay with COLO 205 colon, 2.78 µM; with EKVX NSCLC it was 2.18 µM; with MOLT-4 leukemia, 2.06 µM; in the assay with NCI/ADR-RES ovarian, 2.58 µM. Also, the TGI in the assay on OVCAR-5 ovarian is 2.68 µM; in the assay with PC-3 prostate, 1.83 µM; with SF-539 CNS, 2.91 µM; in the assay on SNB-19 CNS it was 2.41 µM.
Take `Cc1c(C(N)=O)sc2c1c(=O)n(Cc1ccccc1)c1nnc(-c3ccc(Br)cc3)n21`: the GI50 was 2.3 µM in the assay with A498 renal; 2.51 µM in the assay with A549 NSCLC; 3.12 µM in the assay on COLO 205 colon; 3.11 µM in the assay with EKVX NSCLC; 1.64 µM with MOLT-4 leukemia; 2.28 µM with NCI/ADR-RES ovarian. Besides, the GI50 was 7.17 µM in the assay on OVCAR-5 ovarian, 4.06 µM in the assay with PC-3 prostate, 2.87 µM in the assay with SF-539 CNS and 2.91 µM in the assay with SNB-19 CNS. The TGI was 12.7 µM in the assay with A498 renal; 13.1 µM in the assay with A549 NSCLC; 15 µM in the assay with COLO 205 colon; 21.6 µM with EKVX NSCLC; 17.3 µM in the assay with MOLT-4 leukemia; 11.2 µM in the assay on NCI/ADR-RES ovarian. Moreover, the TGI in the assay on OVCAR-5 ovarian turned out to be 21.3 µM; with PC-3 prostate, 22.3 µM; in the assay with SF-539 CNS it was 12.5 µM; in the assay on SNB-19 CNS it was 17.5 µM.
For `CCOC(=O)c1cnn2c3ccccc3n(S(=O)(=O)c3ccc(OC)cc3)c12`, the GI50 with A498 renal is 0.209 µM; in the assay with A549 NSCLC it was 0.483 µM; in the assay on COLO 205 colon, 0.289 µM; in the assay on EKVX NSCLC it was 0.583 µM; with MOLT-4 leukemia, 0.389 µM; with NCI/ADR-RES ovarian, 0.23 µM. The GI50 was 0.558 µM with OVCAR-5 ovarian, 0.375 µM in the assay with PC-3 prostate, 0.252 µM in the assay with SF-539 CNS and 0.712 µM with SNB-19 CNS. Besides, the TGI in the assay on A498 renal was 0.764 µM; in the assay on A549 NSCLC it was over 100 µM; in the assay on COLO 205 colon, 1.08 µM; in the assay with EKVX NSCLC, over 100 µM; in the assay on MOLT-4 leukemia, over 100 µM; with NCI/ADR-RES ovarian it was 24.5 µM. Besides, the TGI was over 100 µM in the assay on OVCAR-5 ovarian, over 100 µM in the assay on PC-3 prostate, 0.868 µM in the assay with SF-539 CNS and over 100 µM in the assay on SNB-19 CNS.
Consider `O=C(/C=C/C12c3ccccc3C(c3ccccc31)C1C(=O)NC(=O)C12)c1ccc(Cl)cc1` (stereo not given), for which the GI50 in the assay with A498 renal is 1.28 µM; in the assay on A549 NSCLC, 2.4 µM; in the assay with COLO 205 colon, 1.91 µM; in the assay with EKVX NSCLC, 1.43 µM; with MOLT-4 leukemia, 1.7 µM; in the assay on NCI/ADR-RES ovarian, 1.77 µM. Moreover, the GI50 was 1.58 µM in the assay with OVCAR-5 ovarian, 1.39 µM with PC-3 prostate, 1.51 µM in the assay on SF-539 CNS and 1.58 µM in the assay with SNB-19 CNS. The TGI amounted to 2.6 µM with A498 renal; 10.1 µM in the assay on A549 NSCLC; 3.77 µM in the assay on COLO 205 colon; 2.87 µM with EKVX NSCLC; 15.5 µM in the assay with MOLT-4 leukemia; 4.93 µM in the assay with NCI/ADR-RES ovarian. Further, the TGI came to 3.35 µM in the assay on OVCAR-5 ovarian, 2.78 µM in the assay on PC-3 prostate, 2.86 µM in the assay on SF-539 CNS and 3.04 µM in the assay on SNB-19 CNS.
On to `COc1cc(-n2ccnc2)cc(OC)c1OC`, for which the GI50 was 35.8 µM with A498 renal; 95.1 µM in the assay with A549 NSCLC; over 100 µM in the assay with COLO 205 colon; 84.4 µM in the assay with EKVX NSCLC; 42.2 µM with MOLT-4 leukemia; 34.2 µM in the assay with NCI/ADR-RES ovarian. Moreover, the GI50 in the assay on OVCAR-5 ovarian is over 100 µM; in the assay on PC-3 prostate, 50 µM; in the assay on SF-539 CNS, over 100 µM; in the assay with SNB-19 CNS it was over 100 µM. The TGI in the assay on A498 renal, with A549 NSCLC, with COLO 205 colon, with EKVX NSCLC, in the assay with MOLT-4 leukemia and in the assay with NCI/ADR-RES ovarian was over 100 µM each time. In addition, the TGI in the assay with OVCAR-5 ovarian, in the assay with PC-3 prostate, in the assay with SF-539 CNS and in the assay on SNB-19 CNS was over 100 µM throughout.
For `O=C(NCc1ccco1)c1cccc(NC2=C(Cl)C(=O)N(Cc3ccccc3)C2=O)c1`, the GI50 with A498 renal is 17.2 µM; in the assay with A549 NSCLC, 19.9 µM; in the assay with COLO 205 colon, 16.2 µM; in the assay on EKVX NSCLC, 34.8 µM; in the assay with MOLT-4 leukemia, 5.19 µM; in the assay on NCI/ADR-RES ovarian, 6.53 µM. Besides, the GI50 in the assay on OVCAR-5 ovarian was 22.5 µM; in the assay with PC-3 prostate it was 5.11 µM; in the assay with SF-539 CNS, 3.53 µM; with SNB-19 CNS, 23.2 µM. The TGI is 50.8 µM in the assay with A498 renal; over 100 µM in the assay with A549 NSCLC; 49.9 µM in the assay with COLO 205 colon; over 100 µM in the assay on EKVX NSCLC; over 100 µM with MOLT-4 leukemia; 34.3 µM with NCI/ADR-RES ovarian. The TGI in the assay on OVCAR-5 ovarian is 63.9 µM; in the assay on PC-3 prostate, 19.6 µM; in the assay with SF-539 CNS, 15 µM; in the assay on SNB-19 CNS it was over 100 µM.
